According to ChEMBL document CHEMBL3885881, “DrugMatrix”:

Species on record: Rattus norvegicus
Test: DrugMatrix - Regimen: Daily Repeat
Assay type: toxicity, organism-based, Sprague-Dawley
Design: regimen Daily Repeat, gender Male, age 6-8 weeks
Conditions: in vivo, po, route oral GAVAGE, vehicle 100 % WATER; for ABSOLUTE LYMPHOCYTE / ABSOLUTE MONOCYTE / ABSOLUTE SEGMENTED NEUTROPHIL / BASOPHIL / EOSINOPHIL / ERYTHROCYTE COUNT / HEMATOCRIT / LEUKOCYTE COUNT / LYMPHOCYTE / MEAN CORPUSCULAR HEMOGLOBIN / MEAN CORPUSCULAR HEMOGLOBIN CONCENTRATION / MEAN CORPUSCULAR VOLUME / MONOCYTE / NEUTROPHIL / NUCLEATED RED BLOOD CELLS / PLATELET COUNT / ABSOLUTE BASOPHIL / ABSOLUTE EOSINOPHIL: tissue Blood; for ALANINE AMINOTRANSFERASE / ALBUMIN / ALKALINE PHOSPHATASE / ASPARTATE AMINOTRANSFERASE / BLOOD UREA NITROGEN / CARBON DIOXIDE / CHLORIDE / CHOLESTEROL / CREATINE PHOSPHOKINASE / CREATININE / GLUCOSE / LACTATE DEHYDROGENASE / LIPASE / PHOSPHORUS / POTASSIUM / SODIUM / TOTAL BILIRUBIN / TOTAL PROTEIN / URIC ACID: tissue Plasma
[1] = 850 mg/kg, 72 h, dose level M1, time 3 day
[2] = 850 mg/kg, 120 h, dose level M1, time 5 day
[3] = 1500 mg/kg, 72 h, dose level High, time 3 day
[4] = 1500 mg/kg, 120 h, dose level High, time 5 day

CCCC(CCC)C(=O)O [VALPROIC ACID]
ABSOLUTE LYMPHOCYTE [1]: 8722.33 CELLS/uL | ABSOLUTE MONOCYTE [1]: 267.67 CELLS/uL | ABSOLUTE SEGMENTED NEUTROPHIL [1]: 836 CELLS/uL | BASOPHIL [1]: 0% | EOSINOPHIL [1]: 0.33% | ERYTHROCYTE COUNT [1]: 5.4 x10E6/uL | HEMATOCRIT [1]: 35.27% | LEUKOCYTE COUNT [1]: 9.87 x10E3/uL | LYMPHOCYTE [1]: 89% | MEAN CORPUSCULAR HEMOGLOBIN [1]: 25.37 pg | MEAN CORPUSCULAR HEMOGLOBIN CONCENTRATION [1]: 38.73 G/DL | MEAN CORPUSCULAR VOLUME [1]: 65.5 fL | MONOCYTE [1]: 2.67% | NEUTROPHIL [1]: 8% | NUCLEATED RED BLOOD CELLS [1]: 0 /100WBC | PLATELET COUNT [1]: 1024 x10E3/uL | ALANINE AMINOTRANSFERASE [1]: 50 u/L | ALBUMIN [1]: 3.97 G/DL | ALKALINE PHOSPHATASE [1]: 196.67 u/L | ASPARTATE AMINOTRANSFERASE [1]: 87.67 u/L | BLOOD UREA NITROGEN [1]: 13 mg/dL | CARBON DIOXIDE [1]: 29 mmol/L | CHLORIDE [1]: 99.33 MEQ/L | CHOLESTEROL [1]: 57.67 mg/dL | CREATINE PHOSPHOKINASE [1]: 134.67 u/L | CREATININE [1]: 0.11 mg/dL | GLUCOSE [1]: 145.67 mg/dL | LACTATE DEHYDROGENASE [1]: 142.67 u/L | LIPASE [1]: 9.33 u/L | PHOSPHORUS [1]: 11.37 mg/dL | POTASSIUM [1]: 6.32 MEQ/L | SODIUM [1]: 143.5 MEQ/L | TOTAL BILIRUBIN [1]: 0.23 mg/dL | TOTAL PROTEIN [1]: 5.33 G/DL | URIC ACID [1]: 1.57 mg/dL | ABSOLUTE BASOPHIL [2]: 0 CELLS/uL | ABSOLUTE EOSINOPHIL [2]: 50 CELLS/uL | ABSOLUTE LYMPHOCYTE [2]: 6795.67 CELLS/uL | ABSOLUTE MONOCYTE [2]: 121.33 CELLS/uL | ABSOLUTE SEGMENTED NEUTROPHIL [2]: 433 CELLS/uL | BASOPHIL [2]: 0% | EOSINOPHIL [2]: 0.67% | ERYTHROCYTE COUNT [2]: 5.21 x10E6/uL | HEMATOCRIT [2]: 33.77% | LEUKOCYTE COUNT [2]: 7.4 x10E3/uL | LYMPHOCYTE [2]: 92% | MEAN CORPUSCULAR HEMOGLOBIN [2]: 24.63 pg | MEAN CORPUSCULAR HEMOGLOBIN CONCENTRATION [2]: 38 G/DL | MEAN CORPUSCULAR VOLUME [2]: 64.83 fL | MONOCYTE [2]: 1.67% | NEUTROPHIL [2]: 5.67% | NUCLEATED RED BLOOD CELLS [2]: 0 /100WBC | PLATELET COUNT [2]: 851.33 x10E3/uL | ALANINE AMINOTRANSFERASE [2]: 58.33 u/L | ALBUMIN [2]: 3.83 G/DL | ALKALINE PHOSPHATASE [2]: 272 u/L | ASPARTATE AMINOTRANSFERASE [2]: 99 u/L | BLOOD UREA NITROGEN [2]: 12.67 mg/dL | CARBON DIOXIDE [2]: 31.67 mmol/L | CHLORIDE [2]: 100 MEQ/L | CHOLESTEROL [2]: 60 mg/dL | CREATINE PHOSPHOKINASE [2]: 402 u/L | CREATININE [2]: 0.28 mg/dL | GLUCOSE [2]: 139.67 mg/dL | LACTATE DEHYDROGENASE [2]: 186.33 u/L | LIPASE [2]: 11 u/L | PHOSPHORUS [2]: 11.17 mg/dL | POTASSIUM [2]: 6.05 MEQ/L | SODIUM [2]: 143.73 MEQ/L | TOTAL BILIRUBIN [2]: 0.2 mg/dL | TOTAL PROTEIN [2]: 5.83 G/DL | URIC ACID [2]: 0.5 mg/dL | ABSOLUTE BASOPHIL [3]: 0 CELLS/uL | ABSOLUTE EOSINOPHIL [3]: 0 CELLS/uL | ABSOLUTE LYMPHOCYTE [3]: 4940.67 CELLS/uL | ABSOLUTE MONOCYTE [3]: 35.67 CELLS/uL | ABSOLUTE SEGMENTED NEUTROPHIL [3]: 257 CELLS/uL | BASOPHIL [3]: 0% | EOSINOPHIL [3]: 0% | ERYTHROCYTE COUNT [3]: 5.94 x10E6/uL | HEMATOCRIT [3]: 37.3% | LEUKOCYTE COUNT [3]: 5.23 x10E3/uL | LYMPHOCYTE [3]: 94.33% | MEAN CORPUSCULAR HEMOGLOBIN [3]: 23.37 pg | MEAN CORPUSCULAR HEMOGLOBIN CONCENTRATION [3]: 37.17 G/DL | MEAN CORPUSCULAR VOLUME [3]: 62.83 fL | MONOCYTE [3]: 0.67% | NEUTROPHIL [3]: 5% | NUCLEATED RED BLOOD CELLS [3]: 0 /100WBC | PLATELET COUNT [3]: 901.67 x10E3/uL | ALANINE AMINOTRANSFERASE [3]: 32.33 u/L | ALBUMIN [3]: 4.5 G/DL | ALKALINE PHOSPHATASE [3]: 225.67 u/L | ASPARTATE AMINOTRANSFERASE [3]: 77.67 u/L | BLOOD UREA NITROGEN [3]: 10.67 mg/dL | CARBON DIOXIDE [3]: 26 mmol/L | CHLORIDE [3]: 104 MEQ/L | CHOLESTEROL [3]: 42.67 mg/dL | CREATINE PHOSPHOKINASE [3]: 120 u/L | CREATININE [3]: 0.22 mg/dL | GLUCOSE [3]: 138 mg/dL | LACTATE DEHYDROGENASE [3]: 112 u/L | LIPASE [3]: 7.67 u/L | PHOSPHORUS [3]: 14.3 mg/dL | POTASSIUM [3]: 6.21 MEQ/L | SODIUM [3]: 146.87 MEQ/L | TOTAL BILIRUBIN [3]: 0.1 mg/dL | TOTAL PROTEIN [3]: 5.87 G/DL | URIC ACID [3]: 1.7 mg/dL | ABSOLUTE BASOPHIL [4]: 0 CELLS/uL | ABSOLUTE EOSINOPHIL [4]: 7.25 CELLS/uL | ABSOLUTE LYMPHOCYTE [4]: 3923.75 CELLS/uL | ABSOLUTE MONOCYTE [4]: 124 CELLS/uL | ABSOLUTE SEGMENTED NEUTROPHIL [4]: 320 CELLS/uL | BASOPHIL [4]: 0% | EOSINOPHIL [4]: 0.25% | ERYTHROCYTE COUNT [4]: 6.03 x10E6/uL | HEMATOCRIT [4]: 36.38% | LEUKOCYTE COUNT [4]: 4.38 x10E3/uL | LYMPHOCYTE [4]: 91% | MEAN CORPUSCULAR HEMOGLOBIN [4]: 22.62 pg | MEAN CORPUSCULAR HEMOGLOBIN CONCENTRATION [4]: 37.5 G/DL | MEAN CORPUSCULAR VOLUME [4]: 60.35 fL | MONOCYTE [4]: 2.25% | NEUTROPHIL [4]: 6.5% | NUCLEATED RED BLOOD CELLS [4]: 0 /100WBC | PLATELET COUNT [4]: 549.5 x10E3/uL | ALANINE AMINOTRANSFERASE [4]: 52.5 u/L | ALBUMIN [4]: 4.57 G/DL | ALKALINE PHOSPHATASE [4]: 204.25 u/L | ASPARTATE AMINOTRANSFERASE [4]: 132 u/L | BLOOD UREA NITROGEN [4]: 15.75 mg/dL | CARBON DIOXIDE [4]: 28 mmol/L | CHLORIDE [4]: 105.75 MEQ/L | CHOLESTEROL [4]: 53.5 mg/dL | CREATINE PHOSPHOKINASE [4]: 1153.75 u/L | CREATININE [4]: 0.25 mg/dL | GLUCOSE [4]: 150.25 mg/dL | LACTATE DEHYDROGENASE [4]: 237.5 u/L | LIPASE [4]: 8.25 u/L | PHOSPHORUS [4]: 13.5 mg/dL | POTASSIUM [4]: 6.62 MEQ/L | SODIUM [4]: 146.95 MEQ/L | TOTAL BILIRUBIN [4]: 0.15 mg/dL | TOTAL PROTEIN [4]: 5.9 G/DL | URIC ACID [4]: 1.88 mg/dL
